According to ChEMBL document CHEMBL3853265 (Medchemcomm, 2016):
pIC50: −log10 of the molar value.

Assays:
[1] = target: T1, Solute carrier family 22 member 12 (Homo sapiens, UniProt Q96S37); assay: Inhibition of human C-terminal eGFP-tagged URAT1 long isoform expressed in CHO cells assessed as decrease in [14C]-uric acid uptake preincubated for 15 mins followed by [14C]-uric acid addition and incubated in dark for 3 hrs by scintillation counting method; format: cell-based
T1 sequence (Q96S37 whole entry): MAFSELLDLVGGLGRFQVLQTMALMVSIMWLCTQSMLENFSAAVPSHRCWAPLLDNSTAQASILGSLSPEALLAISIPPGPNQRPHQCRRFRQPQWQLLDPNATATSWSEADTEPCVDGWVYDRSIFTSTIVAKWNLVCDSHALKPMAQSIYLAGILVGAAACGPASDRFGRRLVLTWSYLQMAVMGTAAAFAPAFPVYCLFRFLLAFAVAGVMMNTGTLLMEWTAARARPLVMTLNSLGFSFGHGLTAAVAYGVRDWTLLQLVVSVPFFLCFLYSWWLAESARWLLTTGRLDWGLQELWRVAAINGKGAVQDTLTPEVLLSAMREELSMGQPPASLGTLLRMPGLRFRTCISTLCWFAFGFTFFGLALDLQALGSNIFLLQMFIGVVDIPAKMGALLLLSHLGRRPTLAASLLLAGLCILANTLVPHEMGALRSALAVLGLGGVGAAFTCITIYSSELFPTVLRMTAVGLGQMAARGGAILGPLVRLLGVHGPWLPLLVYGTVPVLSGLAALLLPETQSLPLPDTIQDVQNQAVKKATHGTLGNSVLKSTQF

[2] = Permeability in RRCK cells; format: ADME, cell-based, Canis lupus familiaris, MDCKII-LE; details: dog, MDCK; read-out: permeability
[3] = Intrinsic clearance in rat liver microsomes; format: ADME; details: read-out: CLH
[4] = Intrinsic clearance in rat hepatocytes assessed per 10^6 cells; format: ADME, cell-based, Hepatocyte
[5] = target: T2, Solute carrier organic anion transporter family member 2B1 (Homo sapiens, UniProt O94956); assay: Drug uptake assessed as human OATP2B1-mediated drug accumulation by cell-based assay relative to wild type protein; format: ADME
T2 sequence (O94956 whole entry): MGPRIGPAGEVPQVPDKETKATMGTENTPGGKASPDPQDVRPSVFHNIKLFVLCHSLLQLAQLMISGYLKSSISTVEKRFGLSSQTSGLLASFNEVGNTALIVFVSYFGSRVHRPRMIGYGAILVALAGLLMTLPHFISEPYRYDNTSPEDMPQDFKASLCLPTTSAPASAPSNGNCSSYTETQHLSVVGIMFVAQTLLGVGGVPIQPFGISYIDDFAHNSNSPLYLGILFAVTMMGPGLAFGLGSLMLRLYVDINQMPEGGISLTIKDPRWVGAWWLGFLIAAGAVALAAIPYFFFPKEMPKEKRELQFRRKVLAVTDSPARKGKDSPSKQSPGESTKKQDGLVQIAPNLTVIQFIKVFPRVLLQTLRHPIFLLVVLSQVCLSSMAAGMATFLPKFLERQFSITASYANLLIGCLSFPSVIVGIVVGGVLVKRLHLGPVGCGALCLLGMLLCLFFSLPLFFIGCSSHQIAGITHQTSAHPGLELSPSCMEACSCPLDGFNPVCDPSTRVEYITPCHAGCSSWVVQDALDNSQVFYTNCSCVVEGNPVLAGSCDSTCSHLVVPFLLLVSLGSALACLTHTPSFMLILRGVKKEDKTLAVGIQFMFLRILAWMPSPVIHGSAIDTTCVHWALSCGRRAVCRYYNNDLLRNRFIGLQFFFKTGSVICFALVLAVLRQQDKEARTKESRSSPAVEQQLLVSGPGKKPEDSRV

[6] = Intrinsic clearance in dog hepatocytes assessed per 10^6 cells; format: ADME, cell-based, Canis lupus familiaris, Hepatocyte
[7] = Intrinsic clearance in human hepatocytes assessed per 10^6 cells; format: ADME, cell-based, Hepatocyte
[8] = target: Sodium channel protein type 5 subunit alpha (Homo sapiens, UniProt Q14524); assay: Inhibition of human NaV1.5 expressed in HEK293 cells by patch clamp method; format: cell-based
[9] = target: T3, Solute carrier organic anion transporter family member 1B3 (Homo sapiens, UniProt Q9NPD5); assay: Drug uptake assessed as human OATP1B3-mediated drug accumulation by cell-based assay relative to wild type protein; format: ADME
T3 sequence (Q9NPD5 whole entry): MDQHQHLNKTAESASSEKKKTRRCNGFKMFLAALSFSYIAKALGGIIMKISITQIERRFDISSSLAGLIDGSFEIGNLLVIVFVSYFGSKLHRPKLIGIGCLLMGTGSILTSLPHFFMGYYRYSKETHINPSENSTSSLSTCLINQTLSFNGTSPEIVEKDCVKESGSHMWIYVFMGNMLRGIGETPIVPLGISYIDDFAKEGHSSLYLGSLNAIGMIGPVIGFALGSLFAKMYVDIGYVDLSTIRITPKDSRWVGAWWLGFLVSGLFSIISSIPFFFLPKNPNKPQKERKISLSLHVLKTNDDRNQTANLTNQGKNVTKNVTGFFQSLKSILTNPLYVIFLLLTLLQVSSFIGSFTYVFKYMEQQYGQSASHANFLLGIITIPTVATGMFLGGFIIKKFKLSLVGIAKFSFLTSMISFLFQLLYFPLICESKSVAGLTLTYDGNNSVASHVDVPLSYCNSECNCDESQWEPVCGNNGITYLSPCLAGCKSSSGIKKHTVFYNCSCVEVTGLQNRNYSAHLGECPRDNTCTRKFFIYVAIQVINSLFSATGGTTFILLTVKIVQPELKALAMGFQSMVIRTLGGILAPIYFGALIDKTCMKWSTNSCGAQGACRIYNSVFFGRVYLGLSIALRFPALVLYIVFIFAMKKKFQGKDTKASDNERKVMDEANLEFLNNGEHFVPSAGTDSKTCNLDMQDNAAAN

[10] = Renal clearance in dog at 0.363 mg/kg, iv and 0.737 mg/kg, po relative to GFR x fraction unbound; format: ADME, organism-based, Canis lupus familiaris; details: in vivo
[11] = Cytotoxicity against THLE cells; format: toxicity, cell-based; details: human
[12] = Half life in rat at 1 mg/kg, iv and 3 mg/kg, po; format: ADME, organism-based; details: in vivo
[13] = target: T4, Organic anion transporter 3 (Homo sapiens, UniProt Q8TCC7); assay: Inhibition of OAT3 (unknown origin)
T4 sequence (Q8TCC7 whole entry): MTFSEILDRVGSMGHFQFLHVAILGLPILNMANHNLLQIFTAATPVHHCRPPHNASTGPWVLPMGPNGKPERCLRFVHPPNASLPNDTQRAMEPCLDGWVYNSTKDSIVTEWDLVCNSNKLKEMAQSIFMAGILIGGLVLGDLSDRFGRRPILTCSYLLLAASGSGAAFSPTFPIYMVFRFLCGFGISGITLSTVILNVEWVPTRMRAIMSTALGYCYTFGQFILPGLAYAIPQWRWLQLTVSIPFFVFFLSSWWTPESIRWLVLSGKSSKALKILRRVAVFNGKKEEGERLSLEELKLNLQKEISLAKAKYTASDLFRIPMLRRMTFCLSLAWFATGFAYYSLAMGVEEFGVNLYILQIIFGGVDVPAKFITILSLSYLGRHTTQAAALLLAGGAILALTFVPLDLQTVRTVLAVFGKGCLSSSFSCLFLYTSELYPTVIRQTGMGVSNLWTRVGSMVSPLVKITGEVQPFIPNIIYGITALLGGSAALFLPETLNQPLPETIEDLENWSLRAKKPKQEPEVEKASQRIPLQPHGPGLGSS

Chain of Sodium channel protein type 5 subunit alpha (Q14524 whole entry): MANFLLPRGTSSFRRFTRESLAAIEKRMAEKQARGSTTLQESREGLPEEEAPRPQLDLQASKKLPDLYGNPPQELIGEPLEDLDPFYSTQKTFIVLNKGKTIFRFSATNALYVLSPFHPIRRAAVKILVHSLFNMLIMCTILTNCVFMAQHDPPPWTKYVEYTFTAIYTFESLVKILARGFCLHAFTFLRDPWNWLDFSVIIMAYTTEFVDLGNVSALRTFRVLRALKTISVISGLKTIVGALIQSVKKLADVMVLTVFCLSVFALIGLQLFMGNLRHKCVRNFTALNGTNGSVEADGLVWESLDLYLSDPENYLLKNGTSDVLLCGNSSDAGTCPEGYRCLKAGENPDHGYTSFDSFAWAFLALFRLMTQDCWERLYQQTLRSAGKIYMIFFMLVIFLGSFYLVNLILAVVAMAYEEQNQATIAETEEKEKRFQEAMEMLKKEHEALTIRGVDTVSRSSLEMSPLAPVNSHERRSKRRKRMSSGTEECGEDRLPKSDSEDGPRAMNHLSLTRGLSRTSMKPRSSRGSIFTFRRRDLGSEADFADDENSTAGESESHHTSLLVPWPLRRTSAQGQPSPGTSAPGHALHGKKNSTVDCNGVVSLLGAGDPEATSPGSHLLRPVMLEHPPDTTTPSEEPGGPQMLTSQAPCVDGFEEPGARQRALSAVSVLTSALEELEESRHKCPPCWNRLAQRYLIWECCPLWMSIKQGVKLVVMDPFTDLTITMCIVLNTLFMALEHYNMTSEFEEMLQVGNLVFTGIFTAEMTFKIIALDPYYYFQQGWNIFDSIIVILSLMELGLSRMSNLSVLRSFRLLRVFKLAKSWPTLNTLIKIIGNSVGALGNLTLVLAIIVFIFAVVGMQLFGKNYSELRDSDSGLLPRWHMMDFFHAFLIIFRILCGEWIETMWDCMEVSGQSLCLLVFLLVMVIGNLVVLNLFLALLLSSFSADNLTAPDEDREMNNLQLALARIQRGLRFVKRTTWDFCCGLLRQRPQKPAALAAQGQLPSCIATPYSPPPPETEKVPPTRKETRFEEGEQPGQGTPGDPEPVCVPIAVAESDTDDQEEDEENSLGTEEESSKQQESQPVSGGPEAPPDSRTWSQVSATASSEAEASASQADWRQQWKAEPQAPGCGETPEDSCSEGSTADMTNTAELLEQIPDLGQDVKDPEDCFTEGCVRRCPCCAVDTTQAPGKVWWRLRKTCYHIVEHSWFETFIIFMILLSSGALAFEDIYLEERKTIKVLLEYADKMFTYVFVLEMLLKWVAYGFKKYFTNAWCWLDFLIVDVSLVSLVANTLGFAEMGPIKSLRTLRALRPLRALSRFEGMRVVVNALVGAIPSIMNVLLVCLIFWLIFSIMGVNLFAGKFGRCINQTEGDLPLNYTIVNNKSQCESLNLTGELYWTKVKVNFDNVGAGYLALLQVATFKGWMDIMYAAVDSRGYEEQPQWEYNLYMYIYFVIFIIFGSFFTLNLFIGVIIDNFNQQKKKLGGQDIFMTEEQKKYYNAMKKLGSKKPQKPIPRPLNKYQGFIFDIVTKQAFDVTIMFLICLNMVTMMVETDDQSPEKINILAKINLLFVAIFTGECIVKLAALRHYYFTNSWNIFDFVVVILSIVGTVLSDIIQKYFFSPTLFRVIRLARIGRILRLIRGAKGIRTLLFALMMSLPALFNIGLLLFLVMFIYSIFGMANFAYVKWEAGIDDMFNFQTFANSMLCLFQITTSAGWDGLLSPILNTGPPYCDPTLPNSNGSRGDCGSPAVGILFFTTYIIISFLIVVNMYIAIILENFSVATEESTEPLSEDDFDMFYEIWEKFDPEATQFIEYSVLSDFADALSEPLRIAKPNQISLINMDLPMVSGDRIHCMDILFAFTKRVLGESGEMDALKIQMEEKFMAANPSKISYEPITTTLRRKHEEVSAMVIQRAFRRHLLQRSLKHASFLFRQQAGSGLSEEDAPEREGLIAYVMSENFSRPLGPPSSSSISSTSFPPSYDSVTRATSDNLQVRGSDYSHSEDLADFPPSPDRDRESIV

Compound | pIC50 [1] | Papp [2] [×10⁻⁶ cm/s] | microsomal CLint [3] [µL/min/mg] | CLH [4] [µL/min/1e6 cells] | fold change (FC) [5] | CLH [6] [µL/min/1e6 cells] | CLH [7] [µL/min/1e6 cells] | pIC50 [8] | fold change (FC) [9] | CL [10] [%] | Activity [11] [µM] | half-life [12] [h] | pIC50 [13]
O=S(=O)(Nc1ccc(C(F)(F)F)nc1)c1ccccc1C(F)(F)F | 7.38 | 27 | < 14 | < 6 | 1.145 | < 6 | < 6 | < 4.00 | 0.582 | < 2 | 153 | 27.3 | 5.48
O=S(=O)(Nc1cncc(C(F)(F)F)c1)c1ccccc1C(F)(F)F | 7.44 | 21 | 35 | 7 | 0.961 | < 6 | 6 | < 4.52 | 0.702 | < 2 | 228 | 3.3 | 5.47
